Reference: US8524773B2, “Utilization of dialkylfumarates” (Biogen Idec International GmbH, priority 1998, dated 2013)
Where a name gives a salt, the structure may show the parent alone.

What was measured:
haemagglutination [1] = assay: in vitro haemagglutination; conditions: compared with cyclosporine
Ehrlich ascites tumour = conditions: mice; cited from earlier work
haemagglutination [2] = assay: in vivo haemagglutination; conditions: compared with cyclosporine
[3] = tested on: human mononuclear cells of periphere blood (PBMC cells); assay: endotoxin-stimulated TNF-α secretion in PBMC cells; format: cell-based
isolated monocytes = assay: endotoxin-stimulated TNF-α secretion in isolated monocytes; format: cell-based, human

SMILES | effect on in vitro haemagglutination (haemagglutination [1]) | growth of the Ehrlich ascites tumour (Ehrlich ascites tumour) | effect on in vivo haemagglutination (haemagglutination [2]) | endotoxin-stimulated TNF-α secretion [3] | endotoxin-stimulated TNF-α secretion (isolated monocytes)
O=C(O)/C=C/C(=O)O [fumaric acid] | comparable to that of cyclosporine | inhibits the growth | comparable to that of cyclosporine |  | 
COC(=O)/C=C/C(=O)O [methyl hydrogen fumarate] |  |  |  | initially increases | initially increases
